Here are results for 9 compounds from patent US6590107B1, “Synthesis, anti-human immunodeficiency virus, and anti-hepatitis B virus activities of 1,3-oxaselenolane nucleosides” (Emory University, priority 1997, dated 2003).

One test concerns HIV-1 (strain LAV). It is filed as cell-based. The protocol:
The ability of nucleosides to inhibit HIV can be measured by various experimental techniques. The technique used herein, and described in detail below, measures the inhibition of viral replication in phytohemaggluinin (PHA) stimulated human peripheral blood mononuclear (PBM) cells infected with HIV-1 (strain LAV). The amount of virus produced is determined by measuring the virus-coded reverse transcriptase enzyme. The amount of enzyme produced is proportional to the amount of virus produced.
Three-day old phytohemagglutinin-stimulated PBM cells (10^6 cells/ml) from hepatitis B and HIV-1 seronegative healthy donors were infected with HIV-1 (strain LAV) at a concentration of about 100 times the 50% tissue culture infections dose (TICD 50) per ml and cultured in the presence and absence of various concentrations of antiviral compounds.
Approximately one hour after infection, the medium, with the compound to be tested (2 times the final concentration in medium) or without compound, was added to the flasks (5 ml; final volume 10 ml). AZT was used as a positive control.
The cells were exposed to the virus (about 2×10^5 dpm/ml, as determined by reverse transcriptase assay) and then placed in a CO2 incubator. HIV-1 (strain LAV) was obtained from the Center for Disease Control, Atlanta, Ga. The methods used for culturing the PBM cells, harvesting the virus and determining the reverse transcriptase activity were those described by McDougal, et al. (J. Immun. Meth. 76, 171-183, 1985) and Spira, et al. (J. Clin. Meth. 25, 97-99, 1987), except that fungizone was not included in the medium (see Schinazi, et al., Antimicrob. Agents Chemother. 32, 1784-1787 (1988); Id., 34:1061-1067 (1990)).
On day 6, the cells and supernatant were tnansferred to a 15 ml tube and centrifuged at about 900 g for 10 minutes. Five ml of supernatant was removed and the virus was concentrated by centrifugation at 40,000 rpm for 30 minutes (Beckman 70.1 Ti rotor). The solubilized virus pellet was processed for determination of the levels of reverse transcriptase. Results are expressed in dpm/ml of sampled supernatant. Virus from smaller volumes of supernatant (1 ml) can also be concentrated by centriguation prior to solubilization and determination of reverse transcriptase levels.
The median effective (EC50) concentration was determined by the median effect-method (Antimicrob. Agents Chemother. 30, 491-498 (1986)). Briefly, the percent inhibition of virus, as determined from measurements of reverse transcriptase, is plotted versus the micromolar concentration of compound.

In the next test the test system is CEM cells. Nature of the test: Toxicity in CEM cells. In kind it is cell-based, human. An excerpt:
Some of the 1,3-oxaselenolanyl nucleosides described herein can be used to treat abnormal cellular proliferation, including tumors and cancer. The extent of antiproliferative activity can be easily assessed by assaying the compound according to the procedure below in a CEM cell or other tumor or proliferative cell line assay. CEM cells are human lymphoma cells (a T-lymphoblastoid cell line that can be obtained from ATCC, Rockville, Md.). The toxicity of a compound to CEM cells provides useful information regarding the activity of the compound against tumors. The toxicity is measured as IC50 micromolar).
Drug solutions, including cycloheximide as a positive control, are plated in triplicate in 50 μl growth medium at 2 times the final concentration and allowed to equilibrate at 37° C. in a 5% CO2 incubator. […] Absorbance is read at 570 nm, blanking on the medium-only wells using a Biotek Biokinetics plate read (Biotek, Winooski, Vt.). Average percent inhibition of growth compared to the untreated control is calculated. IC50, IC90, slope and r value are calculated by the method of Chou and Talaly. Chou T-C, Talalay P. Quantitative analysis of dose-effect relationships: The combined effects of multiple drugs or enzyme inhibitors. […]

A further test relates to Vero cells. Put plainly: Toxicity in Vero cells. It is filed as cell-based.
Test [1] has as its system uninfected human PBM cells. Nature of the test: Toxicity: growth of mitogen-stimulated uninfected human PBM cells. It is filed as cell-based. The protocol: Mitogen stimulated uninfected human PBM cells (3.8×10^5 cells/ml) were cultured in the presence and absence of drug under similar conditions as those used for the antiviral assay described above. The cells were counted after 6 days using a hemacytometer and the trypan blue exclusion method, as described by Schinazi, et al., (Antimicrobial Agents and Chemotherapy, 22(3), 499 (1982)).

For test [2], the system named is Cloned M184 HIV-1 (M184V). Nature of the test: Anti-HIV activity in PBM cells infected with cloned M184V HIV-1 (mutation at codon 184 of reverse transcriptase gene). It is filed as cell-based. The conditions noted are these: for FI EC50 (fold increase): EC50 data from cloned virus/EC50 data from xxBRU; for FI EC90 (fold increase): EC90 M184V versus xxBRU; for EC50 / EC90: Virus M184V; for EC50 / EC90 / activity against the mutated virus: PBM cells; for activity against the mutated virus: HIV with mutation at codon 184 in reverse transcriptase gene.

A further test concerns xxBRU HIV-1. Nature of the test: Anti-HIV activity in PBM cells, virus xxBRU. It is filed as cell-based.
The subject of a further test is HIV. The conditions noted are these: comparison with AZT; cited from earlier work.
Setting [3] is: PBM cells, HIV-1 strain LAV, estimated 10% error factor, read-out: Anti-HIV Activity in PBM Cells (EC50 μM).
Where [4] appears, read: mitogen-stimulated uninfected human PBM cells, read-out: Toxicity (IC50 μM) PMB.
Where [5] appears, read: Table 5, anti-HIV activity in PBM cells.
Where [6] appears, read: Table 5, anti-HIV activity in PBM cells, read-out: EC50.
Setting [7] is: Table 5, cytotoxicity in PBM cells, read-out: IC50 PBM.

Molecules are shown by their SMILES. Where two headings read alike, the source gives them in different places.

As usually defined, the EC50 is the concentration needed to bring the measured effect to its halfway point. By IC50 is commonly meant the point on the concentration scale where inhibition reaches its midpoint. Turning to `Nc1ccn(C2C[Se]C(CO)O2)c(=O)n1` (centres unmarked), the EC50 in the test on HIV-1 (strain LAV) (setting [3]) is 0.88 µM. Further, the IC50 (with CEM cells; with Vero cells; in test [1] (setting [4])) was over 100 µM throughout.
Broadly, the EC90 is the concentration at which the effect reaches the 90% level. In the test on HIV-1 (strain LAV) (setting [5]), `Nc1nc(=O)n(C2C[Se]C(CO)O2)cc1F` (racemic) [(±)-β-Se-FddC, 2-hydroxymethyl-4-(N-5′-flurocytosin-1′-yl)-1,3-oxaselenolane] gave an EC90 of 16.4 µM. In the test with HIV-1 (strain LAV) (setting [6]), the EC50 was determined as 5.55 µM. Further, the IC50 in test [1] (setting [7]) is over 100 µM. In addition, in test [2], the “FI EC50 (fold increase)” value turned out to be 59, the “FI EC90 (fold increase)” value stood at 49, a half-maximal effect (EC50) was put at 108 µM and the EC90 was determined as 337 µM.
`Nc1ccn(C2C[Se]C(CO)O2)c(=O)n1` (racemic) [(±)-β-Se-ddC]: the EC90 in the test on HIV-1 (strain LAV) (setting [5]) is 209 µM; with xxBRU HIV-1, 6.9 µM. Moreover, the EC50 in the test on HIV-1 (strain LAV) (setting [6]) worked out at 2.69 µM; in the test with xxBRU HIV-1, 1.84 µM. In test [1] (setting [7]), the IC50 was over 100 µM. Further, the “activity against the mutated virus” value in test [2] was “significant activity”.
As for `Nc1ccn(C2CSC(CO)O2)c(=O)n1` (racemic) [BCH-189, 2-hydroxymethyl-5-(cytosin-1-yl)-1,3-oxathiolane], the “activity against HIV relative to AZT” value in the test on HIV is recorded as “approximately the same activity against HIV as AZT”.
On to `Nc1nc(=O)n(C2C[Se]C(CO)O2)cc1F` [(+)-β-Se-FddC, 1-β-D-(2′-hydroxymethyl-1′,3′-oxaselenolane-5′-yl)-5-fluorocytosine], for which the 90% effect concentration (EC90) in the test with HIV-1 (strain LAV) (setting [5]) was 164 µM. Besides, the EC50 in the test with HIV-1 (strain LAV) (setting [6]) came out at 41.9 µM. Also, in test [1] (setting [7]), the IC50 is over 100 µM. In test [2], the “FI EC50 (fold increase)” value is listed as over 6, the “FI EC90 (fold increase)” value is reported as over 1, the EC50 is over 50 µM and the concentration for an effect of 90% (EC90) is over 50 µM.
With `Nc1ccn([C@@H]2C[Se][C@H](CO)O2)c(=O)n1` [(+)-β-Se-ddC, (+)-(2R,5S)-β-D-2′,3′-dideoxy-3′-seleno-cytidine], the EC90 is 677 µM in the test on HIV-1 (strain LAV) (setting [5]) and 35.1 µM with xxBRU HIV-1. Further, the EC50 in the test on HIV-1 (strain LAV) (setting [6]) was found to be 3.39 µM; with xxBRU HIV-1, 8.62 µM. For the same compound, the concentration for half-maximal inhibition (IC50) in test [1] (setting [7]) is over 100 µM.
In the test on HIV-1 (strain LAV) (setting [5]), `Nc1nc(=O)n(C2C[Se]C(CO)O2)cc1F` [(−)-β-Se-FddC, 1-β-L-(2′-Hydroxymethyl-1′,3′-oxaselenolane-5′-yl)-5-fluorocytosine] returned an EC90 of 1.05 µM. Moreover, in the test on HIV-1 (strain LAV) (setting [6]), the concentration for a half-maximal effect (EC50) worked out at 0.21 µM. In test [1] (setting [7]), the IC50 was over 100 µM. In addition, in test [2], the “FI EC50 (fold increase)” value was over 455, the “FI EC90 (fold increase)” value is over 53, the EC50 was over 50 µM and the EC90 is over 50 µM.
Turning to `Nc1ccn([C@H]2C[Se][C@@H](CO)O2)c(=O)n1` [(−)-β-Se-ddC, (−)-(2S,5R)-β-L-2′,3′-dideoxy-3′-seleno-cytidine], the figures for the EC90 in the test with HIV-1 (strain LAV) (setting [5]) and with xxBRU HIV-1 were 5.42 µM and 0.95 µM, respectively. Further, the EC50 was found to be 0.88 µM in the test with HIV-1 (strain LAV) (setting [6]) and 0.11 µM in the test on xxBRU HIV-1. In test [1] (setting [7]), the IC50 was over 100 µM. In addition, the “activity against the mutated virus” value in test [2] is reported as “significant activity”.
As to `Nc1nc(=O)n(C2C[Se]C(CO)O2)cc1F` (centres unmarked) [Compound 5-F-Cytosine], in the test on HIV-1 (strain LAV) (setting [3]), the EC50 was 0.07 µM. Further, the IC50 (in the test with CEM cells; in the test with Vero cells; in test [1] (setting [4])) was over 100 µM each time.
